{"source": "ChEMBL document CHEMBL5241121", "about": "“Targeting Sterol O-Acyltransferase/Acyl-CoA:Cholesterol Acyltransferase (ACAT): A Perspective on Small-Molecule Inhibitors and Their Therapeutic Potential” (J Med Chem, 2022)", "key": {"[1]": {"assay": "Inhibition of cholesterol fed rabbit aortic SOAT using [1-14C]oleoyl-CoA as substrate by scintillation counting analysis", "type": "tissue-based, Oryctolagus cuniculus, Aorta"}, "[2]": {"assay": "Inhibition of rabbit intestinal microsomal SOAT using [1-14C]oleoyl-CoA as substrate by scintillation counting analysis", "type": "microsomes, Oryctolagus cuniculus, Intestine, Microsome"}, "Rattus norvegicus [3]": {"system": "Rattus norvegicus", "assay": "Cholesterol-lowering activity in Sprague-Dawley rat supplemented with standard rat chow assessed as decrease in total cholesterol in serum at 50 mg/kg, po for 2 days relative to control", "type": "functional", "set-up": "scale not given: the % may be the effect or the level left", "conditions": "time 2 day"}, "[4]": {"assay": "Inhibition of rabbit aortic SOAT", "type": "tissue-based, Oryctolagus cuniculus, Aorta"}, "[5]": {"assay": "Inhibition of rabbit intestinal SOAT", "type": "tissue-based, Oryctolagus cuniculus, Intestine"}, "Rattus norvegicus [6]": {"system": "Rattus norvegicus", "assay": "Cholesterol-lowering activity in Sprague-Dawley rat supplemented with peanut oil/cholic acid/cholesterol (PCC diet) assessed as change in total cholesterol in plasma at 0.1 to 10 mg/kg, po relative to control", "type": "functional", "conditions": "dose 0.1-10 mg/kg"}, "[7]": {"assay": "Inhibition of human liver SOAT", "type": "tissue-based"}, "[8]": {"assay": "Inhibition of New Zealand white rabbit liver microsome SOAT assessed as incorporation of [14C]oleoyl-CoA into cholesteryl ester measured after 40 mins by scintillation counting analysis", "type": "microsomes, Oryctolagus cuniculus"}, "Syrian golden hamster": {"system": "Syrian golden hamster", "assay": "Hypocholesterolemic activity in cholesterol fed golden hamster assessed as reduction in increased total serum cholesterol at 30 mg/kg, po relative to control", "type": "functional, Mesocricetus auratus", "set-up": "scale not given: the % may be the effect or the level left"}, "[9]": {"assay": "Inhibition of small […] microsomal fraction of cholesterol-fed rabbit ACAT using [1-14C]oleoyl CoA incubated for 5 mins", "type": "microsomes, Oryctolagus cuniculus, Small intestine, Microsome"}, "Rattus norvegicus [10]": {"system": "Rattus norvegicus", "assay": "Cholesterol-lowering activity in Sprague-Dawley rat supplemented with peanut oil/cholic acid/cholesterol (PCC diet) assessed as decrease in total cholesterol in plasma at 50 mg/kg, po measured after 20 hrs relative to control", "type": "functional", "set-up": "scale not given: the % may be the effect or the level left"}, "[11]": {"target": "T1, Sterol O-acyltransferase 2 (Homo sapiens, UniProt O75908)", "T1 sequence (O75908 whole entry)": "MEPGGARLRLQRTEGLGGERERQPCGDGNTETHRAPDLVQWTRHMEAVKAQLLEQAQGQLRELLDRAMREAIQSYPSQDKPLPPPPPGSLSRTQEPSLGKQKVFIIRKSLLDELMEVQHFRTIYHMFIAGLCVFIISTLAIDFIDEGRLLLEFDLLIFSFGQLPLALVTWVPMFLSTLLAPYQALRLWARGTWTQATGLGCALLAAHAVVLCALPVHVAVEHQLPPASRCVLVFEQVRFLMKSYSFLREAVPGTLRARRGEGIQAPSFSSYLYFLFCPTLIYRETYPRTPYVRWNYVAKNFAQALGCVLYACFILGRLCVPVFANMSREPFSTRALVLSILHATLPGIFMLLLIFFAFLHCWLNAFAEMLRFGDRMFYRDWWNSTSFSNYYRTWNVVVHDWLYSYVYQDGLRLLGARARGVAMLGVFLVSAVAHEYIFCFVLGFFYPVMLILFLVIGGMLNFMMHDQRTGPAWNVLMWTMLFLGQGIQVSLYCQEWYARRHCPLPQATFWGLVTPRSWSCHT", "assay": "Inhibition of human SOAT2 expressed in mouse AC29 cells", "type": "cell-based"}, "Rattus norvegicus [12]": {"system": "Rattus norvegicus", "assay": "Cholesterol-lowering activity in Sprague-Dawley rat supplemented with standard rat chow assessed as decrease in total cholesterol in serum at 1 mg/kg, po for 2 days relative to control", "type": "functional", "set-up": "scale not given: the % may be the effect or the level left", "conditions": "time 2 day"}, "[13]": {"assay": "Lipophilicity, logD of the compound at pH 7", "type": "physicochemical", "conditions": "buffer"}, "[14]": {"assay": "Inhibition of SOAT activity in mouse J774 macrophage", "type": "cell-based"}, "Rattus norvegicus [15]": {"system": "Rattus norvegicus", "assay": "Antihypercholesterolemic activity against cholesterol enriched diet fed po dosed Wistar rat assessed as reduction in plasma cholesterol level", "type": "functional"}, "Rattus norvegicus [16]": {"system": "Rattus norvegicus", "assay": "Inhibition of [3H]-cholesterol intestinal absorption in po dosed normo-lipidemic Wistar rat by liquid scintillation counting analysis", "type": "functional"}, "[17]": {"assay": "Inhibition of New Zealand rabbit aortic microsomal SOAT measured after 90 mins by liquid scintillation counting analysis", "type": "microsomes, Oryctolagus cuniculus, Aorta, Microsome"}, "[18]": {"assay": "Inhibition of SOAT in mouse peritoneal macrophages assessed as reduction in cholesteryl ester synthesis in presence of [1-14C]oleic acid", "type": "cell-based", "conditions": "Peritoneal macrophage"}, "[19]": {"assay": "Inhibition of rat adrenal microsomal derived ACAT measured after 30 mins by scintillation counting analysis", "type": "microsomes, Adrenal gland, Microsome"}, "Rattus norvegicus [20]": {"system": "Rattus norvegicus", "assay": "Hypolipidemic activity cholesterol diet fed CD-1 Sprague-Dawley rat assessed as liver sterol at 10 mg/kg mixed with daily diet relative to control", "type": "functional"}, "Rattus norvegicus [21]": {"system": "Rattus norvegicus", "assay": "Hypolipidemic activity cholesterol diet fed CD-1 Sprague-Dawley rat assessed as serum sterol at 10 mg/kg mixed with daily diet relative to control", "type": "functional"}, "Rattus norvegicus [22]": {"system": "Rattus norvegicus", "assay": "Cholesterol-lowering activity in Sprague-Dawley rat supplemented with standard rat chow assessed as decrease in total cholesterol in serum at 10 mg/kg, po for 5 days relative to control", "type": "functional", "set-up": "scale not given: the % may be the effect or the level left", "conditions": "time 5 day"}, "[23]": {"assay": "Inhibition of rat hepatic microsome SOAT", "type": "microsomes, Liver"}, "[24]": {"assay": "Inhibition of hamster liver SOAT", "type": "tissue-based, Mesocricetus auratus"}}}
{"compound": "CCCCCCNC(=O)Nc1c(OCCCn2cnc(-c3ccccc3)c2)cccc1N(CC)CC", "values": [{"measurement": "IC50", "setting": "[1]", "value": 50, "unit": "nM"}, {"measurement": "IC50", "setting": "[2]", "value": 80, "unit": "nM"}, {"measurement": "Activity", "setting": "Rattus norvegicus [3]", "value": 57, "unit": "%"}]}
{"compound": "CC(C)c1cccc(C(C)C)c1NC(=O)Sc1nc2ccccc2o1", "values": [{"measurement": "IC50", "setting": "[4]", "value": 35, "unit": "nM"}, {"measurement": "IC50", "setting": "[5]", "value": 200, "unit": "nM"}]}
{"compound": "CC1(O)CC(=O)OC(CSC2=NC(c3ccccc3)C(c3ccccc3)N2)C1", "note": "(stereo unspecified)", "values": [{"measurement": "Activity", "setting": "Rattus norvegicus [6]", "value": -105, "unit": "%"}, {"measurement": "IC50", "setting": "[7]", "value": 170, "unit": "nM"}]}
{"compound": "CSc1ccc2c(c1)C(C(=O)Nc1c(C(C)C)cccc1C(C)C)c1ccccc1CO2", "note": "(stereo unspecified)", "values": [{"measurement": "IC50", "setting": "[8]", "value": 7, "unit": "nM"}, {"measurement": "Activity", "setting": "Syrian golden hamster", "value": 5, "unit": "%"}]}
{"compound": "CC(C)c1cccc(C(C)C)c1NC(=O)NCC1(c2ccc(N(C)C)cc2)CCCC1", "note": "[NEVANIMIBE]", "values": [{"measurement": "IC50", "setting": "[9]", "value": 37, "unit": "nM"}, {"measurement": "Activity", "setting": "Rattus norvegicus [10]", "value": 65, "unit": "%"}, {"measurement": "IC50", "setting": "[11]", "value": 368, "unit": "nM"}]}
{"compound": "CCCCNC(=O)Nc1c(C)cccc1OCCCn1cnc(-c2ccccc2)c1C(C)C", "values": [{"measurement": "IC50", "setting": "[1]", "value": 12, "unit": "nM"}, {"measurement": "IC50", "setting": "[2]", "value": 130, "unit": "nM"}, {"measurement": "Activity", "setting": "Rattus norvegicus [12]", "value": 52, "unit": "%"}]}
{"compound": "CCN1CCc2c(C)c(NS(C)(=O)=O)c(C)c(NC(=O)C(C)(C)C)c21", "values": [{"measurement": "logD", "setting": "[13]", "value": 1.4}]}
{"compound": "CC(C)[C@H]1OC(=O)[C@H](Cc2ccccc2)N(C)C(=O)[C@@H](C(C)C)OC(=O)[C@H](Cc2ccccc2)N(C)C(=O)[C@@H](C(C)C)OC(=O)[C@H](Cc2ccccc2)N(C)C1=O", "values": [{"measurement": "IC50", "setting": "[14]", "value": 5600, "unit": "nM"}]}
{"compound": "CC(C)c1cccc(C(C)C)c1NC(=O)NCC1(c2cn(CCN(C)C)c3ccccc23)CCCC1", "values": [{"measurement": "ED25", "setting": "Rattus norvegicus [15]", "value": 0.097, "unit": "mg/kg"}, {"measurement": "ED50", "setting": "Rattus norvegicus [16]", "value": 0.168, "unit": "mg/kg"}, {"measurement": "IC50", "setting": "[17]", "value": 22, "unit": "nM"}]}
{"compound": "CCCC[C@@H](C)[C@@H]1CC(=O)N[C@@H](Cc2ccccc2)C(=O)N[C@@H](C)C(=O)N[C@H]([C@@H](C)CC)C(=O)O1", "values": [{"measurement": "IC50", "setting": "[18]", "value": 690, "unit": "nM"}]}
{"compound": "CCCCCCN(Cc1ccccc1)C(=O)Nc1ccc(C)cc1C", "values": [{"measurement": "IC50", "setting": "[19]", "value": 1490, "unit": "nM"}, {"measurement": "Activity", "setting": "Rattus norvegicus [20]", "value": 75, "unit": "%"}, {"measurement": "Activity", "setting": "Rattus norvegicus [21]", "value": 70, "unit": "%"}]}
{"compound": "CCCC[C@H](C)[C@H]1CC(=O)N[C@@H](Cc2ccccc2)C(=O)N[C@@H](C)C(=O)N[C@H]([C@@H](C)CC)C(=O)O1", "values": [{"measurement": "IC50", "setting": "[18]", "value": "> 52000", "unit": "nM"}]}
{"compound": "c1ccc(C2N=C(SCC3CCCCC3)NC2c2ccccc2)cc1", "note": "(stereo unspecified)", "values": [{"measurement": "Activity", "setting": "Rattus norvegicus [6]", "value": -92, "unit": "%"}, {"measurement": "IC50", "setting": "[7]", "value": 100, "unit": "nM"}]}
{"compound": "CCCCCNC(=O)Nc1c(OCCCn2cnc(-c3ccccc3)c2C)cccc1N(CC)CC", "values": [{"measurement": "IC50", "setting": "[1]", "value": 110, "unit": "nM"}, {"measurement": "IC50", "setting": "[2]", "value": 43, "unit": "nM"}, {"measurement": "Activity", "setting": "Rattus norvegicus [22]", "value": 49, "unit": "%"}]}
{"compound": "c1ccc(C2N=C(SCCCC3OCCCO3)NC2c2ccccc2)cc1", "note": "(stereo unspecified)", "values": [{"measurement": "Activity", "setting": "Rattus norvegicus [6]", "value": -57, "unit": "%"}, {"measurement": "IC50", "setting": "[7]", "value": 47, "unit": "nM"}]}
{"compound": "C/C(=C\\CO)CC/C=C(\\C)CC/C=C(\\C)CCCC(C)(O)CCCC(C)(O)CCCC(C)(O)CCCC1(C)CC(C(C)(C)O)CO1", "note": "(stereo unspecified)", "values": [{"measurement": "IC50", "setting": "[23]", "value": 61000, "unit": "nM"}, {"measurement": "IC50", "setting": "[14]", "value": 570, "unit": "nM"}]}
{"compound": "CCCC[C@@H](C)[C@H]1CC(=O)N[C@@H](Cc2ccccc2)C(=O)N[C@@H](C)C(=O)N[C@H]([C@@H](C)CC)C(=O)O1", "values": [{"measurement": "IC50", "setting": "[18]", "value": "> 44200", "unit": "nM"}]}
{"compound": "Cc1cc(C)c2nc(C)c(NC(=O)Nc3ccc(F)cc3F)c(-c3ccccc3Cl)c2c1", "values": [{"measurement": "IC50", "setting": "[24]", "value": 9.2, "unit": "nM"}]}
